Test results: US20230157952A1, “METHOD FOR IMPROVING THE STABILITY OF A PHARMACEUTICAL COMPOSITION COMPRISING A HIGH PENETRATION DRUG, AND THE PHARMACEUTICAL COMPOSITION OBTAINED THEREFROM” (Techfields Inc., priority 2020, published 2023)

Assay: Effect of solvent on the stability of the solution (purity at various pH values and temperature)
Assay type: physicochemical
Conditions: 7% solution

CCN(CC)CCOC(=O)c1ccccc1OC(C)=O.Cl
Purity(%) at day 0 (solvent 15% ethanol, pH 1.0, day 0): 99.1 ± 0.2% | Purity(%) at day 14 (5° C.) (solvent 15% ethanol, pH 1.0, day 14, 5° C.): 92.1 ± 0.3% | Purity(%) at day 14 (25° C.) (solvent 15% ethanol, pH 1.0, day 14, 25° C.): 62.7 ± 0.3% | Purity(%) at day 14 (40° C.) (solvent 15% ethanol, pH 1.0, day 14, 40° C.): 0% | Purity (%) at day 14 (60° C.) (solvent 15% ethanol, pH 1.0, day 14, 60° C.): 0% | Purity(%) at day 0 (solvent 15% ethanol, pH 2.0, day 0): 99.4 ± 0.2% | Purity(%) at day 14 (5° C.) (solvent 15% ethanol, pH 2.0, day 14, 5° C.): 96.5 ± 0.2% | Purity(%) at day 14 (25° C.) (solvent 15% ethanol, pH 2.0, day 14, 25° C.): 83.8 ± 0.3% | Purity(%) at day 14 (40° C.) (solvent 15% ethanol, pH 2.0, day 14, 40° C.): 0% | Purity (%) at day 14 (60° C.) (solvent 15% ethanol, pH 2.0, day 14, 60° C.): 0% | Purity(%) at day 0 (solvent 15% ethanol, pH 3.0, day 0): 99.5 ± 0.1% | Purity(%) at day 14 (25° C.) (solvent 15% ethanol, pH 3.0, day 14, 25° C.): 88.8 ± 0.2% | Purity(%) at day 14 (40° C.) (solvent 15% ethanol, pH 3.0, day 14, 40° C.): 2.9 ± 0.3% | Purity (%) at day 14 (60° C.) (solvent 15% ethanol, pH 3.0, day 14, 60° C.): 0% | Purity(%) at day 0 (solvent 15% ethanol, pH 3.7, day 0): 99.6 ± 0.1% | Purity(%) at day 14 (25° C.) (solvent 15% ethanol, pH 3.7, day 14, 25° C.): 96.2 ± 0.3% | Purity(%) at day 14 (40° C.) (solvent 15% ethanol, pH 3.7, day 14, 40° C.): 15.2 ± 0.3% | Purity (%) at day 14 (60° C.) (solvent 15% ethanol, pH 3.7, day 14, 60° C.): 0% | Purity(%) at day 0 (solvent 15% ethanol, pH 4.0, day 0): 99.7 ± 0.2% | Purity(%) at day 14 (25° C.) (solvent 15% ethanol, pH 4.0, day 14, 25° C.): 96.7 ± 0.2% | Purity(%) at day 14 (40° C.) (solvent 15% ethanol, pH 4.0, day 14, 40° C.): 15.7 ± 0.3% | Purity (%) at day 14 (60° C.) (solvent 15% ethanol, pH 4.0, day 14, 60° C.): 0% | Purity(%) at day 0 (solvent 15% ethanol, pH 4.3, day 0): 99.7 ± 0.1% | Purity(%) at day 14 (25° C.) (solvent 15% ethanol, pH 4.3, day 14, 25° C.): 96.7 ± 0.1% | Purity(%) at day 14 (40° C.) (solvent 15% ethanol, pH 4.3, day 14, 40° C.): 13.6 ± 0.3% | Purity (%) at day 14 (60° C.) (solvent 15% ethanol, pH 4.3, day 14, 60° C.): 0% | Purity(%) at day 0 (solvent 15% ethanol, pH 4.6, day 0): 99.6 ± 0.2% | Purity(%) at day 14 (25° C.) (solvent 15% ethanol, pH 4.6, day 14, 25° C.): 96.5 ± 0.2% | Purity(%) at day 14 (40° C.) (solvent 15% ethanol, pH 4.6, day 14, 40° C.): 4.1 ± 0.3% | Purity (%) at day 14 (60° C.) (solvent 15% ethanol, pH 4.6, day 14, 60° C.): 0% | Purity(%) at day 0 (solvent 15% ethanol, pH 5.0, day 0): 99.5 ± 0.2% | Purity(%) at day 14 (5° C.) (solvent 15% ethanol, pH 5.0, day 14, 5° C.): 97.4 ± 0.2% | Purity(%) at day 14 (25° C.) (solvent 15% ethanol, pH 5.0, day 14, 25° C.): 92.9 ± 0.2% | Purity(%) at day 14 (40° C.) (solvent 15% ethanol, pH 5.0, day 14, 40° C.): 1.3 ± 0.3% | Purity (%) at day 14 (60° C.) (solvent 15% ethanol, pH 5.0, day 14, 60° C.): 0% | Purity(%) at day 0 (solvent 15% ethanol, pH 6.0, day 0): 99.4 ± 0.2% | Purity(%) at day 14 (5° C.) (solvent 15% ethanol, pH 6.0, day 14, 5° C.): 92.3 ± 0.3% | Purity(%) at day 14 (25° C.) (solvent 15% ethanol, pH 6.0, day 14, 25° C.): 84.9 ± 0.3% | Purity(%) at day 14 (40° C.) (solvent 15% ethanol, pH 6.0, day 14, 40° C.): 0% | Purity (%) at day 14 (60° C.) (solvent 15% ethanol, pH 6.0, day 14, 60° C.): 0% | Purity(%) at day 0 (solvent 15% ethanol, pH 7.0, day 0): 99.2 ± 0.1% | Purity(%) at day 14 (5° C.) (solvent 15% ethanol, pH 7.0, day 14, 5° C.): 87.9 ± 0.3% | Purity(%) at day 14 (25° C.) (solvent 15% ethanol, pH 7.0, day 14, 25° C.): 60.2 ± 0.3% | Purity(%) at day 14 (40° C.) (solvent 15% ethanol, pH 7.0, day 14, 40° C.): 0% | Purity (%) at day 14 (60° C.) (solvent 15% ethanol, pH 7.0, day 14, 60° C.): 0% | Purity(%) at day 0 (solvent 15% ethanol, pH 8.0, day 0): 99.1 ± 0.2% | Purity(%) at day 14 (5° C.) (solvent 15% ethanol, pH 8.0, day 14, 5° C.): 58.7 ± 0.4% | Purity(%) at day 14 (25° C.) (solvent 15% ethanol, pH 8.0, day 14, 25° C.): 22.7 ± 0.3% | Purity(%) at day 14 (40° C.) (solvent 15% ethanol, pH 8.0, day 14, 40° C.): 0% | Purity (%) at day 14 (60° C.) (solvent 15% ethanol, pH 8.0, day 14, 60° C.): 0% | Purity(%) at day 0 (solvent 25% ethanol, pH 1.0, day 0): 99.1 ± 0.3% | Purity(%) at day 14 (5° C.) (solvent 25% ethanol, pH 1.0, day 14, 5° C.): 92.3 ± 0.3% | Purity(%) at day 14 (25° C.) (solvent 25% ethanol, pH 1.0, day 14, 25° C.): 63.5 ± 0.3% | Purity(%) at day 14 (40° C.) (solvent 25% ethanol, pH 1.0, day 14, 40° C.): 0% | Purity (%) at day 14 (60° C.) (solvent 25% ethanol, pH 1.0, day 14, 60° C.): 0% | Purity(%) at day 0 (solvent 25% ethanol, pH 2.0, day 0): 99.4 ± 0.3% | Purity(%) at day 14 (5° C.) (solvent 25% ethanol, pH 2.0, day 14, 5° C.): 96.9 ± 0.3% | Purity(%) at day 14 (25° C.) (solvent 25% ethanol, pH 2.0, day 14, 25° C.): 84.2 ± 0.3% | Purity(%) at day 14 (40° C.) (solvent 25% ethanol, pH 2.0, day 14, 40° C.): 0% | Purity (%) at day 14 (60° C.) (solvent 25% ethanol, pH 2.0, day 14, 60° C.): 0% | Purity(%) at day 0 (solvent 25% ethanol, pH 3.0, day 0): 99.5 ± 0.2% | Purity(%) at day 14 (25° C.) (solvent 25% ethanol, pH 3.0, day 14, 25° C.): 88.9 ± 0.2% | Purity(%) at day 14 (40° C.) (solvent 25% ethanol, pH 3.0, day 14, 40° C.): 2.9 ± 0.2% | Purity (%) at day 14 (60° C.) (solvent 25% ethanol, pH 3.0, day 14, 60° C.): 0% | Purity(%) at day 0 (solvent 25% ethanol, pH 3.7, day 0): 99.6 ± 0.1% | Purity(%) at day 14 (5° C.) (solvent 25% ethanol, pH 3.7, day 14, 5° C.): 99.1 ± 0.2% | Purity(%) at day 14 (25° C.) (solvent 25% ethanol, pH 3.7, day 14, 25° C.): 96.3 ± 0.2% | Purity(%) at day 14 (40° C.) (solvent 25% ethanol, pH 3.7, day 14, 40° C.): 15.1 ± 0.3% | Purity (%) at day 14 (60° C.) (solvent 25% ethanol, pH 3.7, day 14, 60° C.): 0% | Purity(%) at day 0 (solvent 25% ethanol, pH 4.0, day 0): 99.8 ± 0.1% | Purity(%) at day 14 (5° C.) (solvent 25% ethanol, pH 4.0, day 14, 5° C.): 99.1 ± 0.1% | Purity(%) at day 14 (25° C.) (solvent 25% ethanol, pH 4.0, day 14, 25° C.): 96.9 ± 0.1% | Purity(%) at day 14 (40° C.) (solvent 25% ethanol, pH 4.0, day 14, 40° C.): 15.2 ± 0.3% | Purity (%) at day 14 (60° C.) (solvent 25% ethanol, pH 4.0, day 14, 60° C.): 0% | Purity(%) at day 0 (solvent 25% ethanol, pH 4.3, day 0): 99.7 ± 0.2% | Purity(%) at day 14 (5° C.) (solvent 25% ethanol, pH 4.3, day 14, 5° C.): 99.1 ± 0.2% | Purity(%) at day 14 (25° C.) (solvent 25% ethanol, pH 4.3, day 14, 25° C.): 96.8 ± 0.2% | Purity(%) at day 14 (40° C.) (solvent 25% ethanol, pH 4.3, day 14, 40° C.): 13.8 ± 0.3% | Purity (%) at day 14 (60° C.) (solvent 25% ethanol, pH 4.3, day 14, 60° C.): 0% | Purity(%) at day 0 (solvent 25% ethanol, pH 4.6, day 0): 99.7 ± 0.2% | Purity(%) at day 14 (25° C.) (solvent 25% ethanol, pH 4.6, day 14, 25° C.): 96.5 ± 0.2% | Purity(%) at day 14 (40° C.) (solvent 25% ethanol, pH 4.6, day 14, 40° C.): 4.2 ± 0.1% | Purity (%) at day 14 (60° C.) (solvent 25% ethanol, pH 4.6, day 14, 60° C.): 0% | Purity(%) at day 0 (solvent 25% ethanol, pH 5.0, day 0): 99.6 ± 0.2% | Purity(%) at day 14 (25° C.) (solvent 25% ethanol, pH 5.0, day 14, 25° C.): 92.8 ± 0.2% | Purity(%) at day 14 (40° C.) (solvent 25% ethanol, pH 5.0, day 14, 40° C.): 1.6 ± 0.1% | Purity (%) at day 14 (60° C.) (solvent 25% ethanol, pH 5.0, day 14, 60° C.): 0% | Purity(%) at day 0 (solvent 25% ethanol, pH 6.0, day 0): 99.5 ± 0.3% | Purity(%) at day 14 (5° C.) (solvent 25% ethanol, pH 6.0, day 14, 5° C.): 92.7 ± 0.2% | Purity(%) at day 14 (25° C.) (solvent 25% ethanol, pH 6.0, day 14, 25° C.): 85.0 ± 0.3% | Purity(%) at day 14 (40° C.) (solvent 25% ethanol, pH 6.0, day 14, 40° C.): 0% | Purity (%) at day 14 (60° C.) (solvent 25% ethanol, pH 6.0, day 14, 60° C.): 0% | Purity(%) at day 0 (solvent 25% ethanol, pH 7.0, day 0): 99.4 ± 0.3% | Purity(%) at day 14 (5° C.) (solvent 25% ethanol, pH 7.0, day 14, 5° C.): 88.0 ± 0.3% | Purity(%) at day 14 (25° C.) (solvent 25% ethanol, pH 7.0, day 14, 25° C.): 61.2 ± 0.3% | Purity(%) at day 14 (40° C.) (solvent 25% ethanol, pH 7.0, day 14, 40° C.): 0% | Purity (%) at day 14 (60° C.) (solvent 25% ethanol, pH 7.0, day 14, 60° C.): 0% | Purity(%) at day 0 (solvent 25% ethanol, pH 8.0, day 0): 99.1 ± 0.3% | Purity(%) at day 14 (5° C.) (solvent 25% ethanol, pH 8.0, day 14, 5° C.): 59.8 ± 0.3% | Purity(%) at day 14 (25° C.) (solvent 25% ethanol, pH 8.0, day 14, 25° C.): 23.1 ± 0.3% | Purity(%) at day 14 (40° C.) (solvent 25% ethanol, pH 8.0, day 14, 40° C.): 0%
